Where two headings read alike, the source gives them in different places.
Assays:
Type in all cases: cell-based
[1] = test system: Xanthomonas campestris B-610; assay: Agar-well diffusion, bactericidal activity; conditions: Xanthomonas campestris
Outline: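 Agar-well diffusion on GYCa agar (pH 7.2–7.4) seeded with bacterial suspension; 150 μL compound solution placed in 6-mm wells. Inhibition zone width measured after 36–40 h incubation.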

[2] = test system: Phytophthora cactorum VKM F-985; assay: Mycelial radial growth inhibition; conditions: Phytophthora cactorum; for inhibition of growth at 1 µM: 1 nmol/mL; for inhibition of growth at 1 µM / inhibition of growth at 3 µM / inhibition of growth at 7 µM / inhibition of growth at 20 µM / inhibition of growth / inhibition of growth at 40 µM: read-out: Inhibition value, I (%); for inhibition of growth at 3 µM: 3 nmol/mL; for inhibition of growth at 7 µM: 7 nmol/mL; for inhibition of growth at 20 µM: 20 nmol/mL; for inhibition of growth: 27 nmol/mL; for inhibition of growth at 40 µM: 40 nmol/mL
Outline: (§1)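 Compounds mixed into molten GPY agar at various concentrations; centre inoculated with a 5-mm mycelial plug from 10-day cultures and incubated at 27 °C. Colony diameter compared with untreated control until control plate was covered (usually 12 days); ≥4 replicates in two experiments.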

[3] = test system: Fusarium oxysporum IBPPM 543; assay: Mycelial radial growth inhibition; conditions: Fusarium oxysporum; for inhibition of growth at 1 µM: 1 nmol/mL; for inhibition of growth at 1 µM / inhibition of growth at 5 µM / inhibition of growth at 30 µM / inhibition of growth at 40 µM: read-out: Inhibition value, I (%); for inhibition of growth at 5 µM: 5 nmol/mL; for inhibition of growth at 30 µM: 30 nmol/mL; for inhibition of growth at 40 µM: 40 nmol/mL
Outline: as §1

[4] = test system: Pseudomonas fluorescens EL-2.1; assay: Agar-well diffusion, bactericidal activity; conditions: Pseudomonas fluorescens, EL2.1, 2 mM/L
Outline: (§2)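 Bacteria spread on agar (BP medium; GYCa for X. campestris; pH 7.2–7.4) with 6-mm wells, each receiving 150 μL compound solution. Cultures grown at 28 °C; growth-inhibition zone width measured after 36–40 h.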

[5] = test system: Pectobacterium carotovorum subsp. carotovorum MI; assay: Agar-well diffusion, bactericidal activity; conditions: Pectobacterium carotovorum, 2 mM/L
Outline: as §2

Micrococcus luteus B-109 = assay: Agar-well diffusion, bactericidal activity; conditions: Micrococcus luteus
Outline: as §2

[6] = test system: Pectobacterium atrosepticum 1043; assay: Agar-well diffusion, bactericidal activity; conditions: Pectobacterium atrosepticum, 1043, 2 mM/L
Outline: as §2

[7] = test system: five representative phytopathogens; assay: Agar-well diffusion, bactericidal activity over the panel of phytopathogens; conditions: 36 h, 2 mM solutions; dependent on the test system used; read-out: inhibition zone width (mm), range over the test systems
Description: Plant pathogenic bacterial strains Micrococcus luteus B-109, Pectobacterium atrosepticum 1043, Pectobacterium carotovorum subsp. carotovorum MI, Pseudomonas fluorescens EL-2.1, and Xanthomonas campestris B-610 and the fungal strain Fusarium oxysporum IBPPM 543 were from the Collection of Rhizosphere Microorganisms, IBPPM RAS (WFCC no. 975, WDCM no. 1021) (CM IBPPM, http://collection.ibppm.ru). The pathogenic fungus Phytophthora cactorum VKM F-985, provided by the All-Russian Collection of Microorganisms (VKM) and deposited at the A.E. Favorsky Irkutsk Institute of Chemistry, SB RAS, was also used as a test organism. Bacteria M. luteus, P. carotovorum subsp. carotovorum, P. atrosepticum, and P. fluorescens were grown in a meat–peptone medium (BP), and X. campestris was grown in the medium with glucose, yeast extract, and calcium carbonate (GYCa). Solid media contained Bacto agar (18 g/L); pH was adjusted to 7.2–7.4. All bacterial cultures were grown at 28 °C. The mycelial cultures of F. oxysporum and P. cactorum were grown on a glucose–peptone–yeast (GPY) nutrient medium at 27 °C. For inoculum preparation, both fungal strains were initially grown on the agar GPY in Petri dishes and then transferred into the seed medium by punching out 5 mm of the agar plate culture with a self-designed cutter.
The antibacterial and antifungal activities of the compounds were explored using the agar-well diffusion method and the technique of mycelial radial growth inhibition. The method of diffusion in agar (measuring the diameter of growth inhibition zones) was used to determine the bactericidal activity. The 6-mm wells were made in agar medium (GYCa for Xanthomonas campestris or BP for other bacteria). Bacterial suspensions were distributed over the agar surface, and the tested compound’s solution (150 μL) was added to each well. The width of growth inhibition zones around the wells was determined after incubation for 36–40 h.

[8] = 120 h, age of the fungus 5 days
[9] = 168 h, age of the fungus 7 days
[10] = 216 h, age of the fungus 9 days
[11] = IBPPM543, 72 h, age of the fungus 3 days
[12] = IBPPM543, 120 h, age of the fungus 5 days
[13] = IBPPM543, 168 h, age of the fungus 7 days
[14] = IBPPM543, 216 h, age of the fungus 9 days
[15] = Table S3, read-out: Inhibition zone width (mm), not less

With Cc1ccc[n+](CC(=O)N/N=C2\C(=O)N(Cc3cccc(C(F)(F)F)c3)c3ccccc32)c1C [Compound 7c] as the compound, how does the zone of inhibition at 2000 µM ([1]; B610, 2 mM/L, average of 3 experiments, read-out: width of the inhibition zone (mm), X. campestris) read?
The zone of inhibition at 2000 µM was 9 mm.

What about the zone of inhibition at 2000 µM ([1]; B610, Table S3, 2 mM/L, read-out: Inhibition zone width (mm), not less) of the same compound?
Its zone of inhibition at 2000 µM is at least 9 mm.

What about the inhibition of growth at 1 µM ([2]; 72 h, age of the fungus 3 days) of the same compound?
Its inhibition of growth at 1 µM is 10%.

What about the inhibition of growth at 3 µM ([2]; 72 h, age of the fungus 3 days) of the same compound?
Its inhibition of growth at 3 µM is 20%.

What about the inhibition of growth at 7 µM ([2]; 72 h, age of the fungus 3 days) of the same compound?
The inhibition of growth at 7 µM was 26%.

And the inhibition of growth at 20 µM ([2]; 72 h, age of the fungus 3 days)?
Its inhibition of growth at 20 µM is 32%.

What about the inhibition of growth ([2]; 72 h, age of the fungus 3 days) of the same compound?
The inhibition of growth was 48%.

And the inhibition of growth at 40 µM ([2]; 72 h, age of the fungus 3 days)?
Its inhibition of growth at 40 µM is 55%.

What about the EC50 ([2]; 120 h, day 5, read-out: EC50, µg/mL at Day 5, P. cactorum) of the same compound?
The EC50 was 20 µg/mL.

And the inhibition of growth at 1 µM [2, 8]?
Its inhibition of growth at 1 µM is 11%.

And the inhibition of growth at 3 µM [2, 8]?
The inhibition of growth at 3 µM was 18%.

And the inhibition of growth at 7 µM [2, 8]?
Its inhibition of growth at 7 µM is 22%.

And the inhibition of growth at 20 µM [2, 8]?
The inhibition of growth at 20 µM was 27%.

And the inhibition of growth [2, 8]?
Its inhibition of growth is 36%.

What about the inhibition of growth at 40 µM [2, 8] of the same compound?
Its inhibition of growth at 40 µM is 56%.

What about the inhibition of growth at 1 µM [2, 9] of the same compound?
Its inhibition of growth at 1 µM is 12%.

What about the inhibition of growth at 3 µM [2, 9] of the same compound?
Its inhibition of growth at 3 µM is 17%.

What about the inhibition of growth at 7 µM [2, 9] of the same compound?
Its inhibition of growth at 7 µM is 22%.

What about the inhibition of growth at 20 µM [2, 9] of the same compound?
The inhibition of growth at 20 µM was 25%.

And the inhibition of growth [2, 9]?
Its inhibition of growth is 33%.

What about the inhibition of growth at 40 µM [2, 9] of the same compound?
Its inhibition of growth at 40 µM is 44%.

And the inhibition of growth at 1 µM [2, 10]?
Its inhibition of growth at 1 µM is 11%.

And the inhibition of growth at 3 µM [2, 10]?
The inhibition of growth at 3 µM was 16%.

And the inhibition of growth at 20 µM [2, 10]?
The inhibition of growth at 20 µM was 9%.

What about the inhibition of growth [2, 10] of the same compound?
Its inhibition of growth is 28%.

And the inhibition of growth at 40 µM [2, 10]?
The inhibition of growth at 40 µM was 41%.

What about the inhibition of growth at 1 µM [3, 11] of the same compound?
Its inhibition of growth at 1 µM is 22%.

What about the inhibition of growth at 5 µM [3, 11] of the same compound?
The inhibition of growth at 5 µM was 36%.

What about the inhibition of growth at 30 µM [3, 11] of the same compound?
Its inhibition of growth at 30 µM is 45%.

And the inhibition of growth at 40 µM [3, 11]?
Its inhibition of growth at 40 µM is 57%.

And the EC50 ([3]; IBPPM543, 120 h, day 5, read-out: EC50, µg/mL at Day 5, F. oxysporum)?
Its EC50 is 13.9 µg/mL.

And the inhibition of growth at 1 µM [3, 12]?
Its inhibition of growth at 1 µM is 21%.

And the inhibition of growth at 5 µM [3, 12]?
Its inhibition of growth at 5 µM is 35%.

What about the inhibition of growth at 30 µM [3, 12] of the same compound?
Its inhibition of growth at 30 µM is 41%.

And the inhibition of growth at 40 µM [3, 12]?
The inhibition of growth at 40 µM was 63%.

And the inhibition of growth at 1 µM [3, 13]?
The inhibition of growth at 1 µM was 15%.

What about the inhibition of growth at 5 µM [3, 13] of the same compound?
Its inhibition of growth at 5 µM is 27%.

And the inhibition of growth at 30 µM [3, 13]?
Its inhibition of growth at 30 µM is 44%.

And the inhibition of growth at 40 µM [3, 13]?
The inhibition of growth at 40 µM was 66%.

And the inhibition of growth at 1 µM [3, 14]?
The inhibition of growth at 1 µM was 10%.

What about the inhibition of growth at 5 µM [3, 14] of the same compound?
Its inhibition of growth at 5 µM is 22%.

And the inhibition of growth at 30 µM [3, 14]?
Its inhibition of growth at 30 µM is 36%.

And the inhibition of growth at 40 µM [3, 14]?
Its inhibition of growth at 40 µM is 64%.

And the zone of inhibition at 2000 µM ([4]; average of 3 experiments, read-out: width of the inhibition zone (mm), Ps. fluorescens)?
The zone of inhibition at 2000 µM was 7 mm.

And the zone of inhibition at 2000 µM [4, 15]?
Its zone of inhibition at 2000 µM is at least 7 mm.

And the zone of inhibition at 2000 µM ([5]; average of 3 experiments, read-out: width of the inhibition zone (mm), P. carotovorum subsp. carotovorum)?
Its zone of inhibition at 2000 µM is 7 mm.

And the zone of inhibition at 2000 µM [5, 15]?
The zone of inhibition at 2000 µM was at least 7 mm.

And the zone of inhibition at 2000 µM (Micrococcus luteus B-109; B109, 2 mM/L, average of 3 experiments, read-out: width of the inhibition zone (mm), M. luteus)?
Its zone of inhibition at 2000 µM is 7 mm.

What about the zone of inhibition at 2000 µM (Micrococcus luteus B-109; B109, Table S3, 2 mM/L, read-out: Inhibition zone width (mm), not less) of the same compound?
The zone of inhibition at 2000 µM was at least 7 mm.

And the zone of inhibition at 2000 µM ([6]; average of 3 experiments, read-out: width of the inhibition zone (mm), P. atrosepticum)?
Its zone of inhibition at 2000 µM is 6 mm.

And the zone of inhibition at 2000 µM [6, 15]?
Its zone of inhibition at 2000 µM is at least 6 mm.

What about the zone of inhibition at 2000 µM [7] of the same compound?
The zone of inhibition at 2000 µM was 6 to 9 mm.

From article PMC10607100, “Anticancer and Antiphytopathogenic Activity of Fluorinated Isatins and Their Water-Soluble Hydrazone Derivatives” (International Journal of Molecular Sciences, 2023)
